Drawing on article PMC4275233, “Evaluation of the Cardiotoxicity of Mitragynine and Its Analogues Using Human Induced Pluripotent Stem Cell-Derived Cardiomyocytes” (PLoS ONE, 2014), this text covers IC50 for four molecules.

Assay [1] deals with T1, hERG (Kv11.1) (Homo sapiens, UniProt Q12809).
T1 construct: gene KCNH2
In words: whole-cell patch clamp: hERG-HEK293 cells ([…]) and I Kr in hiPSC-CMs (IC50). In kind it is cell-based.

The target of assay [2] is T1, hERG (Kv11.1). In words: whole-cell patch clamp of I Kr tail current in hiPSC-CMs. Type of assay: cell-based. (In patch-clamp work, channel activity is measured electrically.)

T1 sequence (Q12809 whole entry): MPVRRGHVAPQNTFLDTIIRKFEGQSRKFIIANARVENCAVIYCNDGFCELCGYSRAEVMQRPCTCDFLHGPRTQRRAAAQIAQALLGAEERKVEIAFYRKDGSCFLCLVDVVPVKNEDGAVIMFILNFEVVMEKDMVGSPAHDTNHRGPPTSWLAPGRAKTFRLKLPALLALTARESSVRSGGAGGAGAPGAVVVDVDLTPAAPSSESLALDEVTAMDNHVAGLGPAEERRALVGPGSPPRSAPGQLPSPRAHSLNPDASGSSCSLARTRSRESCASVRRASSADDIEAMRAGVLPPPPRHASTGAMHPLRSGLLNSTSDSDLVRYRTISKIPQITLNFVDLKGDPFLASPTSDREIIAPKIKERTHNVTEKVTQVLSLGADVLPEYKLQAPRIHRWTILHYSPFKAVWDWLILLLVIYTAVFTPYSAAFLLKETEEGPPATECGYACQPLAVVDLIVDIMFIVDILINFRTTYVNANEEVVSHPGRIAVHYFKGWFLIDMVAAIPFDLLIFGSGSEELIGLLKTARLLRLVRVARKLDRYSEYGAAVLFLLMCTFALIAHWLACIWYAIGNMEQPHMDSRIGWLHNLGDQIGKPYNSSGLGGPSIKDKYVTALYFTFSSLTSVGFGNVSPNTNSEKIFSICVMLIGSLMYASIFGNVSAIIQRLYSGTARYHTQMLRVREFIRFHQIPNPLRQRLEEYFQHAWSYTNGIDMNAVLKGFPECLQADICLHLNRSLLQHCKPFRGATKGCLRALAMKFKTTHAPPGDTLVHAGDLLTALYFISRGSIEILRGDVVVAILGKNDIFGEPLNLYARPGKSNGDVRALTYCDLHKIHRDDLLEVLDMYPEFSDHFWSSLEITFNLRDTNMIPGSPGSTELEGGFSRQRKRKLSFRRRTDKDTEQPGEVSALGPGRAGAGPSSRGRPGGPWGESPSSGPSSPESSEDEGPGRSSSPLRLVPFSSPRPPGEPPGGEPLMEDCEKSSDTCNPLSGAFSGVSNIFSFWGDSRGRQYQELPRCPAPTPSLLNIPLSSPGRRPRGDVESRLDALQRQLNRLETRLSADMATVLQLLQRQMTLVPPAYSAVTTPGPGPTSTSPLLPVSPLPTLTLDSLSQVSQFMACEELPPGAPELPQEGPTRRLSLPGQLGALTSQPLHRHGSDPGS

In general, IC50 refers to the concentration needed to halve the response being measured. High values mean lower potency, low ones higher potency. With `CC[C@@H]1CN2CCc3c([nH]c4cccc(OC)c34)[C@@H]2C[C@@H]1/C(=C\OC)C(=O)OC` [Mitragynine], the IC50 at hERG (Kv11.1) [1] is 910 nM.
Consider `C=C[C@H]1CN2CCc3c([nH]c4cccc(OC)c34)[C@@H]2C[C@@H]1/C(=C\OC)C(=O)OC` [Paynantheine], for which, on hERG (Kv11.1) [2], inhibition was half-maximal at 2470 nM (IC50).
The same measure, in the same setting: in the case of `CC[C@@H]1CN2CCc3c([nH]c4cccc(OC)c34)[C@H]2C[C@@H]1/C(=C\OC)C(=O)OC` [Speciociliatine] it was 1480 nM; in that of `CC[C@H]1CN2CCc3c([nH]c4cccc(OC)c34)[C@@H]2C[C@@H]1/C(=C\OC)C(=O)OC` [Speciogynine], 1020 nM.
